Patent US20230279426A1, “MODIFIED VIRAL COMPOSITIONS FOR VIRAL TRANSDUCTION” (Lycia Therapeutics, Inc., priority 2020, published 2023)

How the values were obtained:
[1] = biological target: T1, recombinant human CI-M6PR protein (Homo sapiens, UniProt P11717); assay: M6PR binding ELISA of matuzumab ligand-linker conjugates; conditions: conjugates of ligand linkers
T1 construct: purchased R&D 6418-GR-050
Description: Binding affinity of matuzumab conjugated to ligand-linkers for M6PR w as determined by ELISA using the following protocol: Nunc black solid bottom MaxiSorp plates were allowed to incubate overnight at 4° C. coated with 1 μg/mL of recombinant human CI-M6PR protein (R&D, 6418-GR-050) in 50 μL PBS. The next day, coating was decanted and plates were washed 3× with PBS. Wells were blocked with 350 μL of 3% BSA-PBS for 1 hour at room temperature. Blocking solution was removed and matuzumab conjugates (matuzumab-Compound I-7 (d4), matuzumab-Compound I-7 (d8), matuzumab-Compound I-8 (d4), matuzumab-Compound I-9 (d4), matuzumab-Compound I-11 (d4) and matuzumab-Compound I-12 (d4)) and their respective isotype controls (human IgG (bioxcell, BP0297) conjugated to the ligand-linker compounds being tested) were diluted in 3% BSA-PBS. 50 µL of diluted conjugates were added to the plate and allowed to incubate at room temperature for 2 hours. After incubation, solutions in plate were decanted and washed with […] of 0.05% PBS-Tween20 three times, drying the plate each wash on a clean paper towel. 50 μL of peroxidase AffiniPure Mouse Anti-Human IgG (Jackson Immuno, 209-035-088) diluted in 3% BSA-PBS to 0.2 μg/mL was added to the plate and allowed to incubate for 1 hour at room temperature in the dark. […]

Jurkat cells = assay: Intracellular uptake of anti-IgG2a conjugates with IgG2a-Alexa488 in Jurkat cells; format: cell-based, human; conditions: 1 h and 24 h
Description: Anti-IgG2a conjugates were generated by adding anti-IgG2a rIgG1 (Southern Biotech, Cat #1155-ol) to a solution of PBS buffer pH 7.2 containing 10% DMSO (final antibody concentration 5 mg/mL). Linker (e.g., Compound I-7) was added (at a 5-40× linker:antibody molar ratio), and the reaction was incubated at room temperature for 3 hours. Excess linker was removed by size exclusion chromatography (Superdex 200 Increase. Cat i28990944) and final DAR, was determined by LC/MS (Sciex 5600+. Acquity UPLC BEH C4 column. Cat #186004495). The resulting rIgG1 antibody conjugates were used in the experiments below.
The anti-IgG2a conjugates were bound to IgG2a-Alexa488, as follows: equal molar ratios of anti-IgG2a and IgG2a-Alexa488 were added in tissue culture media for 30 minutes at room temperature. The resulting anti-IgG2a:IgG2a antibody-Alexa488 compositions were added to Jurkat cells (100k cells/50 ul per well, n=2), and Alexa488 fluorescence levels were measured (via Alexa488 measurement) at 1 hour and 24 hours by flow cytometry. Because Alexa488 accumulates in cells, this presents a way to measure total intracellular uptake by cells over time.

T1 sequence (P11717 41-2491): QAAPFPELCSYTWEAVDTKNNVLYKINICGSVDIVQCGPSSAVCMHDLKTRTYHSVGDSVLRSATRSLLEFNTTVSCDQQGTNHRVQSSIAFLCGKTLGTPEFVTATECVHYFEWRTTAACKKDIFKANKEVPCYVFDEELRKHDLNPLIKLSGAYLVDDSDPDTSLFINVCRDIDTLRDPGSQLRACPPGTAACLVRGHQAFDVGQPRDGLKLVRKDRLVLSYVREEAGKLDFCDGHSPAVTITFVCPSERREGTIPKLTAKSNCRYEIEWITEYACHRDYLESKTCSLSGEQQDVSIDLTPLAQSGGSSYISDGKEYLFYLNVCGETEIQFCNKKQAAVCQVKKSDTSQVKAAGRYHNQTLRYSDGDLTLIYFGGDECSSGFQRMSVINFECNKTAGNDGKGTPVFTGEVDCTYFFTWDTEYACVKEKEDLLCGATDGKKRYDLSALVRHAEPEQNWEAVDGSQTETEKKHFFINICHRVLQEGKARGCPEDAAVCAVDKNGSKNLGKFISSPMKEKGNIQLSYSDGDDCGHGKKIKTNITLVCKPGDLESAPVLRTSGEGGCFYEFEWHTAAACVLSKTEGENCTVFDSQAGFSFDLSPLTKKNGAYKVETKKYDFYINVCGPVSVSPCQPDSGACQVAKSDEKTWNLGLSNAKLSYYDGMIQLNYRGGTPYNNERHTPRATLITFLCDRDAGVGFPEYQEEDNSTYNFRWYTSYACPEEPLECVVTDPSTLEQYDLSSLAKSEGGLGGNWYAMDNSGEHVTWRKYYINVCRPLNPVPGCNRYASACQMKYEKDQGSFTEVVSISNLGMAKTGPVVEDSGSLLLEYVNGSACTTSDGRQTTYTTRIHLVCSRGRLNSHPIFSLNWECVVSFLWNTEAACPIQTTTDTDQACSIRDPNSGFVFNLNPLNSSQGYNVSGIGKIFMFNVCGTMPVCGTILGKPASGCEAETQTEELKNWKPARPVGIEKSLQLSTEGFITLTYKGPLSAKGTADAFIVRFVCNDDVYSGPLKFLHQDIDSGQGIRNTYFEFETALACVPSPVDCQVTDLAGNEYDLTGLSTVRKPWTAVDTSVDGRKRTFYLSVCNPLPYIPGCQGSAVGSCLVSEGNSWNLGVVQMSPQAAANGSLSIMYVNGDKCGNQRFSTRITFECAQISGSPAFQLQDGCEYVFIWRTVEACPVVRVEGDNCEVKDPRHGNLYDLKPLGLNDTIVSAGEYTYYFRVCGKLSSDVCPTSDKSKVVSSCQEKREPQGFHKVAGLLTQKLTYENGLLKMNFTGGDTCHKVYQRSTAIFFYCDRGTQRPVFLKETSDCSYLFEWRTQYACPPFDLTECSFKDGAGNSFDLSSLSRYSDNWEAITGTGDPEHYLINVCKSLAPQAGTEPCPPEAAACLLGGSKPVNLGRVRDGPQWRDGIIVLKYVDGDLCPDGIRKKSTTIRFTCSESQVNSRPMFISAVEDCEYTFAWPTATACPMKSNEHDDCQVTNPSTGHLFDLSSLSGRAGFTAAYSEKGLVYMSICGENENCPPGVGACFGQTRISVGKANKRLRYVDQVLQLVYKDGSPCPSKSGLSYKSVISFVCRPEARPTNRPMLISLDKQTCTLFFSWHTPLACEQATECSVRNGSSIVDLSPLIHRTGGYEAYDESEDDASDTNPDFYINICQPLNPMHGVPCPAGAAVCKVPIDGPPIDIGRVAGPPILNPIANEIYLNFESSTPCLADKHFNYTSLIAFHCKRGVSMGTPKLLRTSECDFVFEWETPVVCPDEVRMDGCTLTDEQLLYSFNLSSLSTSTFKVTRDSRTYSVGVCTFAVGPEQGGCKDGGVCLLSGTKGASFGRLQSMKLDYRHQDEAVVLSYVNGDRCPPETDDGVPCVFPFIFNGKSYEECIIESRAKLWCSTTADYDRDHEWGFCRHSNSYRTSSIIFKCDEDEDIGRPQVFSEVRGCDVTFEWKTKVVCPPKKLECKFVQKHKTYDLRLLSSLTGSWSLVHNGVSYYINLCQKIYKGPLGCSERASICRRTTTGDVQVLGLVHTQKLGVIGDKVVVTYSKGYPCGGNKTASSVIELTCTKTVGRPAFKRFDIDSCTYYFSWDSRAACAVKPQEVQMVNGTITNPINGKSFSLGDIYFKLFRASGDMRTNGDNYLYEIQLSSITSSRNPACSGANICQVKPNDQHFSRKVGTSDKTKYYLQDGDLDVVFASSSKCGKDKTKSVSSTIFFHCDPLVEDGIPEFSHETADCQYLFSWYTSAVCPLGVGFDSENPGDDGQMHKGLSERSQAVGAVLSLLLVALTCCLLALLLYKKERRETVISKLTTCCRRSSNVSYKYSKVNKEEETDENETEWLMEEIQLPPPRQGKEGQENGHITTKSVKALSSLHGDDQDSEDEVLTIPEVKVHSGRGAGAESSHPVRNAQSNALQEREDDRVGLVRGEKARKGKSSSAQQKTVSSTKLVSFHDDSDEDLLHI

Structure (SMILES)	binding affinity to M6PR relative to Compound I-7 [1]	intracellular uptake (Alexa488 fluorescence) (Jurkat cells)
O=C(CCOCCn1cc(CCO[C@H]2O[C@H](CCP(=O)(O)O)[C@@H](O)[C@H](O)[C@@H]2O)nn1)Oc1c(F)c(F)c(F)c(F)c1F [Compound I-11]	weaker binding affinity to M6PR than Compound I-7	sufficiently robust uptake
O=C(CCN1C(=O)C=CC1=O)NCCOCCOCCOCCn1cc(CCO[C@H]2O[C@H](CCP(=O)(O)O)[C@@H](O)[C@H](O)[C@@H]2O)nn1 [Compound I-10]	weaker binding affinity to M6PR than Compound I-7	sufficiently robust uptake
